What was measured:
cathepsin B [1] = molecular target: T1, cathepsin B (Rattus norvegicus, UniProt P00787); test: Cathepsin B activity in living rat hepatocytes (CSLM, (Z-Arg)^2 -cresyl violet); format: cell-based; conditions: living rat hepatocyte, 10 μM substrate (printed μm), 5 min, PBS
Method: (§1) Cathepsin B activity was detected in real-time in living CC531 cells and freshly prepared living rat hepatocytes after isolation by collagenase perfusion of livers of male mature rats after 24 h of starvation (47). At time point zero, cell preparations were diluted 20-fold in PBS containing either 10 μM (Z-Arg)^2 -cresyl violet (Enzyme Systems Products, Dublin, Calif.) as fluorogenic substrate for cathepsin B (48) or 10 μM substrate and 20 μM FMK (Protek, Dublin, Calif.), as selective cathepsin B inhibitor (40,41). The fluorogenic substrate is not fluorescent but after proteolytic cleavage, liberated cresyl violet is fluorescent. Synthesis of the substrate is described elsewhere in Ref. 48. The substrate was dissolved first in dimethyl formamide (final concentration in the incubation medium was 1% (v/v)). An aliquot of 100 μl of the cell suspensions was brought into a well formed by a stainless steel ring attached to a glass slide (49). Images of cells were captured in real-time with a Leica CSLM fitted to a Leica Fluovert inverted microscopic equipped with a PL APO oil-immersion objective (×63, NA 1.40). Excitation was performed at a wavelength of 560 nm and fluorescence was captured at greater than 580 nm. […] Images in the X-Y plane were recorded with intervals of 0.5 μm in the Z direction. […] Images were recorded in a 512×512 pixel format. […]

cathepsin B [2] = molecular target: T1, cathepsin B; test: Cathepsin B activity in living CC531 colon cancer cells (CSLM, (Z-Arg)^2 -cresyl violet); format: cell-based; conditions: living CC531 cells, 10 μM substrate (printed μm), 5 min, PBS
Method: An established rat colon carcinoma cell line, CC531, was used for all experiments. The parental cell line was obtained from a 1,2-dimethylhydrazine-induced moderately differentiated and weakly immunogenic colon adenocarcinoma in WAG-Rij rats (44). Cells were cultured in vitro at 37° C. as monolayers in Dulbecco's modification of Eagle's medium (ICN Biomedicals, Irvine, Ayrshire, UK) supplemented with 10% (w/v) fetal bovine serum, 2 mM glutamine, 100 IU penicillin/ml and 100 μg streptomycin/ml. Cells were washed in PBS and, after detachment by scraping and centrifugation (250 g, room temperature, 10 min), a single cell suspension at a final concentration of 1×10^6 cancer cells in 50 μl of PBS was obtained with a viability of at least 95% (45,46). Cell suspension were either used for cytochemical purposes or for in vivo administration to induce metastases in the liver.
Cathepsin B activity was detected in real-time in living CC531 cells and freshly prepared living rat hepatocytes after isolation by collagenase perfusion of livers of male mature rats after 24 h of starvation (47). At time point zero, cell preparations were diluted 20-fold in PBS containing either 10 μM (Z-Arg)^2 -cresyl violet (Enzyme Systems Products, Dublin, Calif.) as fluorogenic substrate for cathepsin B (48) or 10 μM substrate and 20 μM FMK (Protek, Dublin, Calif.), as selective cathepsin B inhibitor (40,41). The fluorogenic substrate is not fluorescent but after proteolytic cleavage, liberated cresyl violet is fluorescent. Synthesis of the substrate is described elsewhere in Ref. 48. The substrate was dissolved first in dimethyl formamide (final concentration in the incubation medium was 1% (v/v)). An aliquot of 100 μl of the cell suspensions was brought into a well formed by a stainless steel ring attached to a glass slide (49). Images of cells were captured in real-time with a Leica CSLM fitted to a Leica Fluovert inverted microscopic equipped with a PL APO oil-immersion objective (×63, NA 1.40). Excitation was performed at a wavelength of 560 nm and fluorescence was captured at greater than 580 nm. Excitation with the use of green light is harmless to living cells. The pinhole aperture was set at 100 giving an optimized image (50). With fixed pinhole, filter combination and a laser power setting adjusted to give minimal fading, the photomultiplier gain and photometric offset were optimized. Cells were subjected to optical serial sectioning after each 60 s of incubation up to 300 s. Images in the X-Y plane were recorded with intervals of 0.5 μm in the Z direction. For analysis, each optical section was averaged eight times. Images were recorded in a 512×512 pixel format. The size of each pixel represented 0.015 μm^2 in the object. […]

[3] = test system: living hepatocytes and colon cancer cells; test: Penetration of cresyl violet-based substrates into living cells; format: cell-based, rat
Method: as §1, with “Images of cells were captured in real-time with a Leica CSLM fitted to a Leica Fluovert inverted microscopic equipped with a PL APO oil-immersion objective (×63, NA 1.40).” left out
The localization properties of cresyl violet in individual cells were investigated using confocal microscopy. […] The fluorescence is localized only in patches at the plasma membrane. […]

T1 sequence (P00787 80-333): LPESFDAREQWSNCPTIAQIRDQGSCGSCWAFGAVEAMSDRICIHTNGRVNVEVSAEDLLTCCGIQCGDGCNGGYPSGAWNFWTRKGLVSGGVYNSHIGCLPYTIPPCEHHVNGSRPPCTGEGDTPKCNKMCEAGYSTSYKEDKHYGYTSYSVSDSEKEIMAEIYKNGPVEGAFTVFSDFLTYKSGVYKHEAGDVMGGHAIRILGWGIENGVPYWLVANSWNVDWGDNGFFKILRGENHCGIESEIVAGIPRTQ

## N=C(N)NCCC[C@H](NC(=O)OCc1ccccc1)C(=O)NC1=CC2Oc3cc(NC(=O)[C@H](CCCNC(=N)N)NC(=O)OCc4ccccc4)ccc3N=C2c2ccccc21 (stereo partly drawn) [[Z-Arg]^2-cresyl violet]
Cathepsin B [1]
  localization of cathepsin B activity (cresyl violet fluorescence): present in granular lysosome-like intracellular compartments
Cathepsin B [2]
  localization of cathepsin B activity (cresyl violet fluorescence): found at the plasma membrane (large arrowheads) and intracellularly
[3]
  cell penetration: penetrate living cells
